Holding throughout (type): cell-based
Data set [1] has as its system MCF-7 (human breast cancer cell line). Kind of data set: MTT assay, in vitro anticancer activity, MCF-7. Particulars: MCF7, 48 h treatment. The method, then: (§1) The synthesized compounds 7(a–l) were evaluated for their in vitro anticancer activity against MCF-7 (human breast cancer cell line), HeLa (human cervical cancer cell line), SKMEL-2 (human melanoma cancer cell line) and HL-60 (human leukemia cancer cell line) cancer cell lines, as shown in Table 2. […] The GI50 values (the concentration required to achieve a growth inhibition of 50%) for the synthesized compounds were determined by MTT assay method. The in vitro anticancer evaluation results and GI50 values were listed in Table 2, and the well-known anticancer drug Adriamycin was used as positive control.
(§2) The synthesized compounds 7(a–l) were evaluated for their in vitro anticancer activity against MCF-7 (human breast cancer cell line), HeLa (human cervical cancer cell line), SKMEL-2 (human melanoma cancer cell line) and HL-60 (human leukemia cancer cell line) cancer cell lines. The GI50 values (concentration required to Growth inhibition of 50%) for the synthesized compounds were determined using the MTT assays method.
(§3) The stock solutions of test compounds were prepared in DMSO. After 24 h incubation, different concentrations (2, 4, 6, 8 µM) of compounds, made by serial dilution in culture medium, were added in 48 h incubation. The final concentration of DMSO was 0.01% in each well. […] The cell growth was determined using MTT (3-(4,5-dimethylthiazol-2-yl)-2,5-diphenyl tetrazolium bromide (Sigma, St. Louis, MO, USA) reduction assay, which is based on the ability of viable cells to reduce a soluble yellow tetrazolium salt to blue formazan crystal. Briefly, after 48 h of treatments, the 10 µl of MTT dye, prepared in phosphate buffered saline (PBS) was added to all wells. The plates were then incubated for 4 h at 37 °C. Supernatant from each well was carefully removed, formazon crystals were dissolved in 100 µL of DMSO and absorbance at 540 nm wavelength was recorded and each concentration was tested in threefold. The GI50 values were determined as concentration of compounds that inhibited cancer cell growth by 50%.
For orientation: Formazan colour is commonly taken as a measure of viable cells.

The subject of data set [2] is HeLa (human cervical cancer cell line). In words: MTT assay, in vitro anticancer activity, HeLa. Conditions: 48 h treatment. Here is the method: as §1, §2, §3
Data set [3] deals with SKMEL-2 (human melanoma cancer cell line). Kind of data set: MTT assay, in vitro anticancer activity, SKMEL-2. Conditions: SK-MEL-2, 48 h treatment. Here is the method: as §1, §2, §3
Data set [4] has as its system HL-60 (human leukemia cancer cell line). In words: MTT assay, in vitro anticancer activity, HL-60. Particulars: 48 h treatment. Here is the method:
as §1, §2, §3

Data set [5] is described as follows: MTT assay, cytotoxicity on non-tumorigenic cells, MCF-10A. Conditions: human, MCF-10A non-tumorigenic breast epithelial cells; MTT, MCF-10A normal breast epithelial cells. The method, then:
[The procedure below names another cell line; the source lists this cell line under the same test.] as §1, §3

In data set [6] the test system is MCF-10A normal breast epithelial cell lines. The data set is described as above. Conditions: MCF-7 vs MCF-10A GI50. The method, then: [The procedure below names another cell line; the source lists this cell line under the same test.] as §1, §3

Broadly, the GI50 is the concentration at which growth is held to half of that of the control. A higher GI50 goes with lower sensitivity of the cells. With `O=C(NCc1nnc(/N=C/c2ccc(Cl)cc2Cl)s1)c1ccccc1` [Compound 7b, (E)-N-((5-(2,4-Dichlorobenzylideneamino)-1,3,4-thiadiazol-2-yl)methyl) benzamide], the GI50 came to 28.7 µM in data set [1], 39 µM in data set [2], 22.9 µM in data set [3] and 28.2 µM in data set [4]. In addition, in data set [5], the GI50 at 48 h amounted to 86.1 µM. Also, in data set [6], the “selectivity for MCF-7 cancer cell lines in comparison to MCF-10A normal breast epithelial cell lines” value is on record as “three”.

Regarding `COc1cc(/C=N/c2nnc(CNC(=O)c3ccccc3)s2)cc(OC)c1OC` [Compound 7i, (E)-N-((5-(3,4,5-Trimethoxybenzylideneamino)-1,3,4-thiadiazol-2-yl)methyl) benzamide], the GI50 was determined as 49 µM in data set [1], 78 µM in data set [2], 52.6 µM in data set [3] and 45.8 µM in data set [4].

Take `COc1cc(OC)c(OC)cc1/C=N/c1nnc(CNC(=O)c2ccccc2)s1` [Compound 7j, (E)-N-((5-(2,4,5-Trimethoxybenzylideneamino)-1,3,4-thiadiazol-2-yl)methyl) benzamide]: the GI50 in data set [1] is 51.4 µM; in data set [2], 78.8 µM; in data set [3] it was 55.7 µM; in data set [4], 49.9 µM.

For the compound `COc1cc(/C=N/c2nnc(CNC(=O)c3ccccc3)s2)ccc1O` [Compound 7e, (E)-N-((5-(4-Hydroxy-3-methoxybenzylideneamino)-1,3,4-thiadiazol-2-yl)methyl) benzamide], the GI50 in data set [1] is 35.2 µM; in data set [2], 46.8 µM; in data set [3], 28.1 µM; in data set [4], 39.6 µM.

Regarding `COc1cccc2c1C(=O)c1c(O)c3c(c(O)c1C2=O)C[C@@](O)(C(=O)CO)C[C@@H]3O[C@H]1C[C@H](N)[C@H](O)[C@H](C)O1` [ADR, Adriamycin, reference compound], the GI50 in data set [1], in data set [2], in data set [3] and in data set [4] was < 10 µM in each case.

For the compound `CCOc1cc(/C=N/c2nnc(CNC(=O)c3ccccc3)s2)ccc1O` [Compound 7f, (E)-N-((5-(3-Ethoxy-4-hydroxybenzylideneamino)-1,3,4-thiadiazol-2-yl)methyl) benzamide], the GI50 in data set [1] is 38.4 µM; in data set [2], 49.2 µM; in data set [3], 30 µM; in data set [4] it was 37.5 µM.

Regarding `COc1ccc(/C=N/c2nnc(CNC(=O)c3ccccc3)s2)cc1` [Compound 7g, (E)-N-((5-(4-Methoxybenzylideneamino)-1,3,4-thiadiazol-2-yl)methyl) benzamide], the GI50 amounted to 41 µM in data set [1], 66.1 µM in data set [2], 46.4 µM in data set [3] and 42.4 µM in data set [4].

As to `O=C(NCc1nnc(/N=C/c2ccco2)s1)c1ccccc1` [Compound 7k, (E)-N-((5-(Furan-2-ylmethyleneamino)-1,3,4-thiadiazol-2-yl)methyl) benzamide], the 50% growth inhibitory concentration (GI50) in data set [1] was 11.7 µM; in data set [2] it was 23.8 µM; in data set [3] it was 19.6 µM; in data set [4], 35.5 µM. Besides, the GI50 at 48 h in data set [5] was > 100 µM.

As to `O=C(NCc1nnc(/N=C/c2cccs2)s1)c1ccccc1` [Compound 7l, (E)-N-((5-(Thiophen-2-ylmethyleneamino)-1,3,4-thiadiazol-2-yl)methyl) benzamide], the GI50 was 19 µM in data set [1], 28.8 µM in data set [2], 22 µM in data set [3] and 29.9 µM in data set [4]. In addition, the concentration for 50% growth inhibition (GI50) at 48 h in data set [5] was > 100 µM.

With `O=C(NCc1nnc(/N=C/c2ccc(Cl)cc2)s1)c1ccccc1` [Compound 7a, (E)-N-((5-(4-Chlorobenzylideneamino)-1,3,4-thiadiazol-2-yl)methyl) benzamide], the GI50 was 22.9 µM in data set [1], 32.8 µM in data set [2], 21.9 µM in data set [3] and 21.7 µM in data set [4]. Moreover, the GI50 at 48 h in data set [5] is > 100 µM.

Turning to `COc1ccc(/C=N/c2nnc(CNC(=O)c3ccccc3)s2)cc1OC` [Compound 7h, (E)-N-((5-(3,4-Dimethoxybenzylideneamino)-1,3,4-thiadiazol-2-yl)methyl) benzamide], the GI50 in data set [1] amounted to 46.2 µM; in data set [2], 71.7 µM; in data set [3] it was 49.1 µM; in data set [4], 48.2 µM.

As for `O=C(NCc1nnc(/N=C/c2ccc(O)cc2)s1)c1ccccc1` [Compound 7c, (E)-N-((5-(4-Hydroxybenzylideneamino)-1,3,4-thiadiazol-2-yl)methyl) benzamide], the GI50 in data set [1] was found to be 32.4 µM; in data set [2], 41.1 µM; in data set [3], 27.5 µM; in data set [4], 33.3 µM.

For the compound `O=C(NCc1nnc(/N=C/c2ccccc2O)s1)c1ccccc1` [Compound 7d, (E)-N-((5-(2-Hydroxybenzylideneamino)-1,3,4-thiadiazol-2-yl)methyl) benzamide], the GI50 in data set [1] worked out at 36.7 µM; in data set [2], 52.4 µM; in data set [3], 34 µM; in data set [4], 40.2 µM.

For the origin of these results see paper PMC6152631, “Microwave-Assisted Facile Synthesis, Anticancer Evaluation and Docking Study of N-((5-(Substituted methylene amino)-1,3,4-thiadiazol-2-yl)methyl) Benzamide Derivatives” (Molecules : A Journal of Synthetic Chemistry and Natural …, 2017).
